Key:
[1] = test system: BMP response element (BRE from Id1 promoter) luciferase reporter; assay: BRE luciferase reporter gene assay in C2C12 cells; type: cell-based, mouse
Method: Luciferase activity was measured and error bars result from the mean of duplicate measurements. […] Expression of cGKIα/β was controlled by immunoblot using α-cGKI antibody. (C) As in (A and B) except that reporters were co-transfected with sh-cGKI, sh-cGKI mix and sh-control into C2C12 cells. BRE driven luciferase activity was measured and error bars represent deviation of the mean of duplicate measurements. […] Following cell extraction RNA was reverse transcribed into cDNA. The mRNA amount of Id1 was analyzed using Id1 specific primers including the control of applied cDNA by PCR using β-actin specific primers. The result is derived from a representative experiment. (F) As in (A and B), except that reporters were co-transfected with cGKIα and MYC-TFII-I into C2C12 cells. […] Lysates were pooled and immunoblotted for expression of cGKIα and TFII-I. (G) As in (E) except that mRNA amount of cGKI was analyzed using cGKI specific primers. The result is derived from an exemplary experiment. Results were quantified using ImageJ. cGKI mRNA expression was normalized relative to β-actin. […] Fold changes in BRE reporter activities were normalized to the non-treated empty vector control (mean±SD). […] The PDGF- or serum-induced proliferation was measured.
C2C12 cells were transfected with pBRE4-luc and pRL-TK and indicated constructs. […] Luciferase activity was measured according to manufacturer's instructions using the Dual-Luciferase® Reporter Assay System (Promega) and a FB12 or Mithras LB 940 luminometer (Berthold). Expression control was examined by immunoblotting.

Smad1/5/8 = assay: Smad phosphorylation assay in C2C12 cells; type: cell-based, mouse; settings: without ligand, sh-cGKI versus sh-control
From the text: (§1) Whole cellular extracts were subjected to immunoblot using α-pSmad1/5/8 antibody. α-cGKIβ and α-β-actin immunoblotting was used as expression and loading control. To monitor the activity of cGKIβ the membrane was re-probed with α-pVASP antibody. Results were quantified using ImageJ and Smad1 C-terminal phosphorylation was normalized relative to β-actin. […] (C) Efficiency of cGKI knock down using a specific short hairpin-RNA (sh-cGKI) compared to a control (sh-control) was validated in C2C12 cells via immunoblot using α-cGKI antibody. Applied protein amount was controlled by α-β-tubulin antibody. (D) C2C12 cells were transfected with sh-cGKI and sh-control and subjected as in (A) to Smad phosphorylation assay. Smad1/5/8 phosphorylation and protein loading was monitored with α-pSmad1/5/8 and α-β-actin antibodies. Results were quantified using […]) and Smad1/5 C-terminal phosphorylation was normalized relative to β-actin.
(§2) Cell lysis and immunoblotting was performed as described in (Hartung et al., 2006).

[2] = molecular target: T1, GST-BRII-tail (methionine 501 to leucine 1038) (UniProt Q13873)
T1 sequence: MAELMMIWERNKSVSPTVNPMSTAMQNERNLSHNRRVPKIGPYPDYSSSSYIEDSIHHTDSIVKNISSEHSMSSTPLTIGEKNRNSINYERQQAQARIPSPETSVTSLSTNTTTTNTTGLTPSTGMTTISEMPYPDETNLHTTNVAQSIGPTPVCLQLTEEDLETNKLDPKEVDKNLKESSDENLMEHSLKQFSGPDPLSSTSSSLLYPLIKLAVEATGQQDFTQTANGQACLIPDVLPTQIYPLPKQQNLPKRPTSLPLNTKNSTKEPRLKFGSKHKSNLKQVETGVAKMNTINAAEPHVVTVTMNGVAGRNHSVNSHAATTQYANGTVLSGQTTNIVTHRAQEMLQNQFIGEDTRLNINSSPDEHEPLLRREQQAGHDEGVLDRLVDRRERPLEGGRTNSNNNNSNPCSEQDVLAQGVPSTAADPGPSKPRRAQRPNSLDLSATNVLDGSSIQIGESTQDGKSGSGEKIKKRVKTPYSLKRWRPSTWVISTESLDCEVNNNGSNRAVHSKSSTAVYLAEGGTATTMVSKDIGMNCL

Id1 promoter = assay: Chromatin immunoprecipitation (ChIP) at the Id1 promoter in C2C12 cells; type: cell-based, mouse; settings: co-stimulation with or stimulation with 8-Br-cGMP alone, 1 μmol/l, 4 hrs
Method: Chromatin immunoprecipitation (ChIP) was performed using (A) α-cGKI or α-Smad1 antibody or (B) α-Smad1 followed by α-cGKI antibody and vice versa or (C) α-Smad1 followed by α-TFII-I antibody and vice versa. Subsequent PCR identified a co-precipitated Id1 promoter sequence using specific primers. […] To exclude unspecific outcome control samples were run (for ChIP: no antibody, IgG, α-GFP antibody; for two-step ChIP: α-respective antibody followed by IgG; for unspecific amplification via PCR: no template). […] C2C12 cells were stimulated with BMP-2 for 4 h or left unstimulated. Endogenous chromatin immunoprecipitations (ChIP) of a specific Id1 promoter fragment was performed using α-Smad1 and α-cGKI antibodies (left). Id1 promoter was assayed for cGKI/TFII-I complex formation by one-step and two-step ChIP with the indicated antibodies. (D) Endogenous complexes with cGKI from C2C12 cells were analyzed with α-TFII-I, α-Smad1 and α-Smad4 antibodies and a lysate aliquot was monitored for protein expression. (E) Smad1/TFII-I association was analyzed in 293T cells expressing both proteins. IP was performed using a Smad1 directed antibody and the pellets were examined for co-IP of TFII-I. Lysate control was done by immunoblotting α-Smad1 and α-TFII-I.
Briefly, C2C12 cells were grown to a confluence of 80-90% (10 cm dish). […] PCR products were separated on 8% PA gels and analyzed under UV light.

VASP = assay: Endogenous VASP phosphorylation in C2C12 cells (immunoblot); type: cell-based, mouse; settings: 1 μmol/l 8-Br-cGMP
Method: Endogenous VASP phosphorylation in C2C12 cells was monitored in response to 1 μmol/l and 100 μmol/l 8-Br-cGMP stimulation. Lysates were analyzed using immunoblot α-pVASP and α-β-actin.

cGKI = assay: Immunofluorescence microscopy of cGKI localization in C2C12 cells; type: cell-based, mouse; settings: stimulation for 30 min
Method: (C) Immunofluorescence staining of cGKI in C2C12 cells after stimulation with BMP-2 or 8-Br-cGMP. DNA was stained using Hoechst dye.
Analysis was done with 63-fold magnification at a Leica DMR (Leica) confocal microscope. To examine the protein localization C2C12 cells or transfected 293T cells were starved for 3 hrs and either stimulated with 10 or 20 nmol/l BMP-2 and/or 1 mmol/18-Br-cGMP for 30 min or for 5 to 60 min or left untreated. Indirect immunofluorescence was performed as described in (Bengtsson and Wilson, 2006). Cells were analyzed using fluorescence microscopy (63-fold magnification, Axiovert 200M, Zeiss).

HA-BRII-LF Q657ins16 = assay: BRE reporter assay with BRII PAH mutant in C2C12 cells; type: cell-based, mouse; settings: C2C12 cells overexpressing cGKI and PAH mutant versus mutant alone
Method: (§3) Luciferase activity was measured and error bars result from the mean of duplicate measurements. […] Expression of cGKIα/β was controlled by immunoblot using α-cGKI antibody. (C) As in (A and B) except that reporters were co-transfected with sh-cGKI, sh-cGKI mix and sh-control into C2C12 cells. BRE driven luciferase activity was measured and error bars represent deviation of the mean of duplicate measurements. […] Luciferase activities are represented as mean of each value and standard deviations result from duplicate measurements. […] Following cell extraction RNA was reverse transcribed into cDNA. The mRNA amount of Id1 was analyzed using Id1 specific primers including the control of applied cDNA by PCR using β-actin specific primers. The result is derived from a representative experiment. (F) As in (A and B), except that reporters were co-transfected with cGKIα and MYC-TFII-I into C2C12 cells. BRE driven luciferase activity was measured, standard deviations result from duplicate measurements. […] Lysates were pooled and immunoblotted for expression of cGKIα and TFII-I. (G) As in (E) except that mRNA amount of cGKI was analyzed using cGKI specific primers. The result is derived from an exemplary experiment. Results were quantified using ImageJ. cGKI mRNA expression was normalized relative to β-actin. […] The PDGF- or serum-induced proliferation was measured. […]

[3] = test system: human aortic smooth muscle cells; assay: PDGF- or serum-induced proliferation of human aortic smooth muscle cells expressing BMPRII mutant; type: cell-based; settings: cells transfected with MYC-BMPRII-Q567ins16 with cGKI coexpression, 24 h
Method: as §3

Smad1 = assay: Smad phosphorylation assay in transfected 293T cells; type: cell-based; settings: 293T cells co-expressing Smad1, non-stimulated and BMP-2/8-Br-cGMP co-stimulated
From the text: as §1, §2

## sh-cGKI: shRNA construct specific for mouse cGKI, SEQ ID NO 3 (CACCGGGACGATGTTTCTAACAAACGAATTTGTTAGAAACATCGTCC; listed as Homo sapiens)
[1]; C2C12 cells transfected with sh-cGKI versus sh-control, BMP-2 stimulated
  BRE reporter gene response upon ligand stimulation compared to control cells: less than 50%
Smad1/5/8
  endogenous Smad1/5/8 phosphorylation: reduced

## recombinant cGKIα (Promega)
[2]
  in vitro phosphorylation (γ-32P-ATP, autoradiography), cGKIα activated with 8-Br-cGMP: BRII-tail was phoshorylated by activated cGKlα

## Nc1nc2c(nc(Br)n2[C@@H]2O[C@@H]3COP(=O)(O)O[C@H]3[C@H]2O)c(=O)[nH]1 [8-Br-cGMP]
Id1 promoter
  effect on binding of Smad1 and cGKI to the Id1 promoter: did not affect
[1]; C2C12 cells, endogenous cGKI, 1 nmol/l BMP-2 and/or 1 μmol/l or 100 μmol/l 8-Br-cGMP, 24 hrs
  BRE reporter gene activity upon stimulation: did not affect
VASP
  cGKI-mediated VASP phosphorylation: weak cGKI-mediated VASP phosphorylation
cGKI
  nuclear translocation of endogenous cGKI: redistribution of cGKI to the nucleus

B1: cGKI: cGMP-dependent protein kinase I (α or β isoform, SEQ ID NO 1 or 2), overexpressed in cells (protein, UniProt Q13976 2-671, looked up)
cGMP-dependent protein kinase …: SELEEDFAKILMLKEERIKELEKRLSEKEEEIQELKRKLHKCQSVLPVPSTHIGPRTTRAQGISAEPQTYRSFHDLRQAFRKFTKSERSKDLIKEAILDNDFMKNLELSQIQEIVDCMYPVEYGKDSCIIKEGDVGSLVYVMEDGKVEVTKEGVKLCTMGPGKVFGELAILYNCTRTATVKTLVNVKLWAIDRQCFQTIMMRTGLIKHTEYMEFLKSVPTFQSLPEEILSKLADVLEETHYENGEYIIRQGARGDTFFIISKGTVNVTREDSPSEDPVFLRTLGKGDWFGEKALQGEDVRTANVIAAEAVTCLVIDRDSFKHLIGGLDDVSNKAYEDAEAKAKYEAEAAFFANLKLSDFNIIDTLGVGGFGRVELVQLKSEESKTFAMKILKKRHIVDTRQQEHIRSEKQIMQGAHSDFIVRLYRTFKDSKYLYMLMEACLGGELWTILRDRGSFEDSTTRFYTACVVEAFAYLHSKGIIYRDLKPENLILDHRGYAKLVDFGFAKKIGFGKKTWTFCGTPEYVAPEIILNKGHDISADYWSLGILMYELLTGSPPFSGPDPMKTYNIILRGIDMIEFPKKIAKNAANLIKKLCRDNPSERLGNLKNGVKDIQKHKWFEGFNWEGLRKGTLTPPIIPSVASPTDTSNFDSFPEDNDEPPPDDNSGWDIDF
[1]; transfected C2C12 cells, in the absence of BMP-2
  BRE reporter activity upon overexpression: increased
HA-BRII-LF Q657ins16
  BRE activity in cells expressing the PAH mutant BRII: rescues defective BMP signaling
[3]
  PDGF- or serum-induced proliferation: downregulated

B2: cGKIβ: β isoform of cGMP-dependent protein kinase I, SEQ ID NO 2 (protein, listed as Homo sapiens)
chain: MGTLRDLQYALQEKIEELRQRDALIDELELELDQKDELIQKLQNELDKYRSVIRPATQQAQKQSASTLQGEPRTKRQAISAEPTAFDIQDLSHVTLPFYPKSPQSKDLIKEAILDNDFMKNLELSQIQEIVDCMYPVEYGKDSCIIKEGDVGSLVYVMEDGKVEVTKEGVKLCTMGPGKVFGELAILYNCTRTATVKTLVNVKLWAIDRQCFQTIMMRTGLIKHTEYMEFLKSVPTFQSLPEEILSKLADVLEETHYENGEYIIRQGARGDTFFIISKGTVNVTREDSPSEDPVFLRTLGKGDWFGEKALQGEDVRTANVIAAEAVTCLVIDRDSFKHLIGGLDDVSNKAYEDAEAKAKYEAEAAFFANLKLSDFNIIDTLGVGGFGRVELVQLKSEESKTFAMKILKKRHIVDTRQQEHIRSEKQIMQGAHSDFIVRLYRTFKDSKYLYMLMEACLGGELWTILRDRGSFEDSTTRFYTACVVEAFAYLHSKGIIYRDLKPENLILDHRGYAKLVDFGFAKKIGFGKKTWTFCGTPEYVAPEIILNKGHDISADYWSLGILMYELLTGSPPFSGPDPMKTYNIILRGIDMIEFPKKIAKNAANLIKKLCRDNPSERLGNLKNGVKDIQKHKWFEGFNWEGLRKGTLTPPIIPSVASPTDTSNFDSFPEDNDEPPPDDNSGWDIDF
Smad1
  C-terminal Smad1 phosphorylation: resulted in phosphorylation of Smad1

Source: patent US20110045568A1, “METHOD FOR RESTORING BMP-RECEPTOR SIGNALING IN A CELL” (FREIE UNIVERSITÄT BERLIN, priority 2008, published 2011)
